Patent publication US20150010928A1, “MEANS AND METHODS FOR ASSESSING AN ENDOCRINE DISEASE OR DISORDER” (priority 2012, published 2015)
Marks after values point to notes of the source that are not given here.

System: male rats
Assay: Plasma metabolite profiling (GC-MS, LC-MS, SPE-LC-MS) in male rats dosed once daily over 28 days (OECD 407)
Assay type: in vivo, rat
Details: high dose; for 3-Methoxytyrosine / 3-O-Methylsphingosine (d18:1) / 5-O-Methylsphingosine (d18:1) / Androstenedione / Arachidonic acid (C20:cis[5,8,11,14]4) / Behenic acid (C22:0) / Cholesterol / Cysteine / Dodecanol / Eicosanoic acid (C20:0) / Galactose, lipid fraction / Glycerol phosphate, lipid fraction / Histidine / Indole-3-lactic acid / Lignoceric acid (C24:0) / Nervonic acid (C24:cis[15]1) / Noradrenaline (Norepinephrine) / Phosphate, lipid fraction / Phosphatidylcholine (C18:0, C18:2) / Phosphatidylcholine (C18:0, C20:3) / Phosphatidylcholine (C18:0, C22:6) / Phosphatidylcholine (C18:0,C18:1) / Phytosphingosine / Stearic acid (C18:0) / Testosterone / Threonine / Tricosanoic acid (C23:0) / Tryptophan / alpha-Tocopherol / beta-Sitosterol / dihomo-gamma-Linolenic acid (C20:cis[8,11,14]3) / erythro-Sphingosine (d18:1) / myo-Inositol-2-phosphate, lipid fraction / threo-Sphingosine (d18:1): Table 11a
Outline: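 Metabolites were measured by GC-MS (derivatised) and reversed-phase LC-MS, with steroids by online SPE-LC-MS, in plasma drawn from fasted rats on days 7, 14 and 28 of once-daily dosing (5/sex/group). Values are ratios versus sex-matched untreated controls, normalized to pool samples, with Welch-test p-values.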

Q: For `CC(=O)O[C@]1(C(C)=O)CC[C@H]2[C@@H]3C=C(Cl)C4=CC(=O)[C@@H]5C[C@@H]5[C@]4(C)[C@H]3CC[C@@]21C` [Cyproteron Acetate], which 3-Methoxytyrosine (m7) is on record?
A: 1.37 *

Q: What about the “3-O-Methylsphingosine (d18:1)” value (m7) of the same molecule?
A: 1.73 *

Q: What about the “5-O-Methylsphingosine (d18:1)” value (m7) of the same molecule?
A: 1.83 *

Q: What about the Androstenedione (m7) of the same molecule?
A: 4.65^

Q: And the “Arachidonic acid (C20:cis[5,8,11,14]4)” value (m7)?
A: 1.35 *

Q: What about the “Behenic acid (C22:0)” value (m7) of the same molecule?
A: 1.38 *

Q: What about the Cholesterol (m7) of the same molecule?
A: 1.33 *

Q: And the Cysteine (m7)?
A: 1.3 *

Q: What about the Dodecanol (m7) of the same molecule?
A: 1.26 *

Q: What about the “Eicosanoic acid (C20:0)” value (m7) of the same molecule?
A: 1.06^

Q: What about the “Galactose, lipid fraction” value (m7) of the same molecule?
A: 1.37 *

Q: And the “Glycerol phosphate, lipid fraction” value (m7)?
A: 1.57 *

Q: And the Histidine (m7)?
A: 1.39 *

Q: And the Indole-3-lactic acid (m7)?
A: 1.13 *

Q: And the “Lignoceric acid (C24:0)” value (m7)?
A: 1.46 *

Q: What about the “Nervonic acid (C24:cis[15]1)” value (m7) of the same molecule?
A: 1.69 *

Q: And the “Noradrenaline (Norepinephrine)” value (m7)?
A: 1.61 *

Q: And the “Phosphate, lipid fraction” value (m7)?
A: 1.32 *

Q: What about the “Phosphatidylcholine (C18:0, C18:2)” value (m7) of the same molecule?
A: 1.04 *

Q: What about the “Phosphatidylcholine (C18:0, C20:3)” value (m7) of the same molecule?
A: 1.03^

Q: And the “Phosphatidylcholine (C18:0, C22:6)” value (m7)?
A: 1.31 *

Q: And the “Phosphatidylcholine (C18:0,C18:1)” value (m7)?
A: 1.09 *

Q: What about the Phytosphingosine (m7) of the same molecule?
A: 1.05^

Q: What about the “Stearic acid (C18:0)” value (m7) of the same molecule?
A: 1.44 *

Q: What about the Testosterone (m7) of the same molecule?
A: 3.32^

Q: What about the Threonine (m7) of the same molecule?
A: 1.78 *

Q: And the “Tricosanoic acid (C23:0)” value (m7)?
A: 1.48 *

Q: And the Tryptophan (m7)?
A: 1.1 *

Q: And the alpha-Tocopherol (m7)?
A: 1.22 *

Q: What about the beta-Sitosterol (m7) of the same molecule?
A: 2.11 *

Q: And the “dihomo-gamma-Linolenic acid (C20:cis[8,11,14]3)” value (m7)?
A: 1.66 *

Q: What about the “erythro-Sphingosine (d18:1)” value (m7) of the same molecule?
A: 1.68 *

Q: What about the “myo-Inositol-2-phosphate, lipid fraction” value (m7) of the same molecule?
A: 1.65 *

Q: And the “threo-Sphingosine (d18:1)” value (m7)?
A: 1.39 *

Q: And the 3-Hydroxybutyrate (m7, Table 11b)?
A: 0.58 *

Q: And the “4-Hydroxy-3-methoxyphenylglycol (HMPG)” value (m7, Table 11b)?
A: 1.11^

Q: What about the 18-Hydroxy-11-deoxycorticosterone (m7, Table 11b) of the same molecule?
A: 0.03 *

Q: What about the “21-Hydroxyprogesterone (11-Deoxycorticosterone)” value (m7, Table 11b) of the same molecule?
A: 0.3 *

Q: What about the Citrate (m7, Table 11b) of the same molecule?
A: 1.24^

Q: What about the “Coenzyme Q9” value (m7, Table 11b) of the same molecule?
A: 0.58 *

Q: And the “Coenzyme Q10” value (m7, Table 11b)?
A: 0.49 *

Q: And the Corticosterone (m7, Table 11b)?
A: 0.04 *

Q: And the Metanephrine (m7, Table 11b)?
A: 0.91^

Q: And the “Palmitoleic acid (C16:cis[9]1)” value (m7, Table 11b)?
A: 0.88 *

Q: And the “Phosphatidylcholine (C16:0, C16:0)” value (m7, Table 11b)?
A: 0.78 *

Q: What about the Progesterone (m7, Table 11b) of the same molecule?
A: 0.4 *

Q: And the trans-4-Hydroxyproline (m7, Table 11b)?
A: 0.53 *

Q: And the 3-Methoxytyrosine (m14)?
A: 1.81 *

Q: And the “3-O-Methylsphingosine (d18:1)” value (m14)?
A: 2.19 *

Q: What about the “5-O-Methylsphingosine (d18:1)” value (m14) of the same molecule?
A: 2.18 *

Q: And the Androstenedione (m14)?
A: 3.8 *

Q: What about the “Arachidonic acid (C20:cis[5,8,11,14]4)” value (m14) of the same molecule?
A: 2.03 *

Q: And the “Behenic acid (C22:0)” value (m14)?
A: 1.52 *

Q: What about the Cholesterol (m14) of the same molecule?
A: 1.63 *

Q: And the Cysteine (m14)?
A: 1.28 *

Q: And the Dodecanol (m14)?
A: 1.71 *

Q: What about the “Eicosanoic acid (C20:0)” value (m14) of the same molecule?
A: 1.15

Q: What about the “Galactose, lipid fraction” value (m14) of the same molecule?
A: 2.57 *

Q: And the “Glycerol phosphate, lipid fraction” value (m14)?
A: 2.05 *

Q: And the Histidine (m14)?
A: 1.17

Q: What about the Indole-3-lactic acid (m14) of the same molecule?
A: 1.15 *

Q: What about the “Lignoceric acid (C24:0)” value (m14) of the same molecule?
A: 1.78 *

Q: What about the “Nervonic acid (C24:cis[15]1)” value (m14) of the same molecule?
A: 2.55 *

Q: What about the “Noradrenaline (Norepinephrine)” value (m14) of the same molecule?
A: 1.22

Q: What about the “Phosphate, lipid fraction” value (m14) of the same molecule?
A: 1.8 *

Q: And the “Phosphatidylcholine (C18:0, C18:2)” value (m14)?
A: 1.04

Q: And the “Phosphatidylcholine (C18:0, C20:3)” value (m14)?
A: 1.16 *

Q: And the “Phosphatidylcholine (C18:0, C22:6)” value (m14)?
A: 1.5 *

Q: And the “Phosphatidylcholine (C18:0,C18:1)” value (m14)?
A: 1.48 *

Q: What about the Phytosphingosine (m14) of the same molecule?
A: 1.23 *

Q: What about the “Stearic acid (C18:0)” value (m14) of the same molecule?
A: 2.3 *

Q: And the Testosterone (m14)?
A: 2.63 *

Q: And the Threonine (m14)?
A: 2.58 *

Q: And the “Tricosanoic acid (C23:0)” value (m14)?
A: 1.3 *

Q: And the Tryptophan (m14)?
A: 1.11 *

Q: What about the alpha-Tocopherol (m14) of the same molecule?
A: 1.32 *

Q: What about the beta-Sitosterol (m14) of the same molecule?
A: 2.16 *

Q: And the “dihomo-gamma-Linolenic acid (C20:cis[8,11,14]3)” value (m14)?
A: 2.78 *

Q: What about the “erythro-Sphingosine (d18:1)” value (m14) of the same molecule?
A: 1.92 *

Q: And the “myo-Inositol-2-phosphate, lipid fraction” value (m14)?
A: 2.78 *

Q: And the “threo-Sphingosine (d18:1)” value (m14)?
A: 2 *

Q: And the 3-Hydroxybutyrate (m14, Table 11b)?
A: 0.73 *

Q: And the “4-Hydroxy-3-methoxyphenylglycol (HMPG)” value (m14, Table 11b)?
A: 0.99^

Q: What about the 18-Hydroxy-11-deoxycorticosterone (m14, Table 11b) of the same molecule?
A: 0.01 *
